Laboratory results as given in patent US9376440B2, “Pyrrolobenzodiazepines as antiproliferative agents” (MEDIMMUNE LIMITED, priority 2012, dated 2016).
Read-outs that look alike come from different tables or passages of the source.

Assays:
[1] = system: A431 (epidermoid); experiment: MTT cytotoxicity assay, A431; assay type: cell-based; conditions: Homo sapiens, read-out: IC50 (nM) A431
Experimental: (§1) The cytotoxicity potential of the compounds of the invention 16c-h was compared with the comparative compounds 16a, 16b and GWL-78 in a number of tumour cell lines and the non-cancer cell line WI38 after 96 hours exposure using the MTT (3-(4,5-Dimethylthiazol-2-yl)-2,5-diphenyltetrazolium bromide) colorimetric assay, as described below.
(§2) A panel of several types of human cancer cell lines including epidermoid (A431), lung (A549), ovarian (A2780) and breast (MCF7 and MDAMB-231), as well as the non-tumour cell line WI38, were used to determine the cytotoxicity of the compounds. The cells were grown in normal conditions at 37° C. under a 5% CO2 humidified atmosphere, either in Dulbecco's Modified Eagle Medium or Modified Eagle Medium (depending on the cell line), supplemented with 10% fetal bovine serum (Biosera, UK), 1% L-glutamine, 1% non-essential amino acids and 0.05% hydrocortisone (Gibco, Invitrogen, USA). Cells were then seeded into 96-well plates in a total volume of 160 μl, and allowed to reach a 30-40% degree of confluence before starting the experiment. The ligands were dissolved in sterilized ultrapure water at a maximum concentration of 100 μM, and serial decimal dilutions prepared. These were added to the cells in a volume of 40 μl. After 96 hours of continuous exposure to each ligand, the cytotoxicity was determined by the MTT (3-(4,5-Dimethylthiazol-2-yl)-2,5-diphenyltetrazolium bromide) (Lancaster Synthesis Ltd, UK) colorimetric assay (Skehan P, S. R., et al., Journal of the National Cancer Institute 1990, 82, 1107). Absorbance was quantified by spectrophotometry at A=570 nm (ELx808, Bio-Tek Instruments, Inc., USA). IC50 values were calculated by a dose-response analysis using the Origin 6.0™ software.

[2] = system: A549 (lung); experiment: MTT cytotoxicity assay, A549; assay type: cell-based; conditions: Homo sapiens, read-out: IC50 (nM) A549
Experimental: as §1, §2

[3] = system: A2780 (ovarian); experiment: MTT cytotoxicity assay, A2780; assay type: cell-based; conditions: Homo sapiens, read-out: IC50 (nM) A2780
Experimental: as §1, §2

[4] = system: MCF7 (breast); experiment: MTT cytotoxicity assay, MCF7; assay type: cell-based; conditions: Homo sapiens, read-out: IC50 (nM) MCF7
Experimental: as §1, §2

[5] = system: MDAMB-231 (breast); experiment: MTT cytotoxicity assay, MDAMB-231; assay type: cell-based; conditions: Homo sapiens, read-out: IC50 (nM) MDAMB-231
Experimental: as §1, §2

[6] = system: Mia Paca 2; experiment: MTT cytotoxicity assay, Mia Paca 2; assay type: cell-based; conditions: Homo sapiens, read-out: IC50 (nM) Mia Paca 2
Experimental: as §1, §2

[7] = system: WI38; experiment: MTT cytotoxicity assay, non-tumour cell line WI38; assay type: cell-based; conditions: Homo sapiens, read-out: IC50 (nM) WI38
Experimental: as §1, §2

[8] = system: primary CLL cells; experiment: Annexin V/propidium iodide flow cytometry assay in primary CLL cells; assay type: cell-based; conditions: CLL cell
Experimental: The cytotoxicity potential of the compounds of the invention 16c-h was also compared with the comparative compounds 16a, 16b and GWL-78 in a primary CLL cell lines using the Annexin V assay (van Engeland, M, et al., Cytometry 1998, 31, 1-9), as described below.
Freshly isolated peripheral blood CLL cells (1×10^8 mL^−1) were cultured in RPMI medium (Invitrogen, Paisley, U.K.) supplemented with 100 U/mL penicillin, […] streptomycin, and 10% fetal calf serum. The cells were incubated at 37° C. in a humidified 5% CO2 atmosphere in the presence of each compound. All compounds were dissolved in DMSO and were evaluated in serial dilutions against the primary CLL cells. In addition, control cultures were carried out to which no drug was added. The cytotoxic effects of the compounds were quantified using an annexin V/propidium iodide flow cytometry assay (Bender Medsystems, Vienna, Austria). All assays were performed in duplicate, and LD50 values were calculated from sigmoidal dose-response curves using the Prism 6.0 software (Graphpad Software Inc., San Diego, Calif.). The sigmoidal dose-response curves were derived by plotting log [compound concentration] against the percentage apoptosis induced by that concentration. A wide range of concentrations were used to establish the biologically active range for each individual compound.

[9] = system: DNA; conditions: cited from earlier work
[10] = MTD (maximum tolerated dose) study, intraperitoneal dosing; assay type: in vivo, mouse; conditions: Swiss-Webster mice, IP, 400 μg/Kg/day
Experimental: Initially a small scale study was carried out to determine the MTD (maximum tolerated dose) in Swiss-Webster mice using intraperitoneal dosing (IP). […] As 16f provided a marginally better toxicity profile in the MTD study, it was decided to carry out more extensive in vivo tumour xenograft studies on this molecule.

Compound	IC50 ([1]; A-431, 96 h)	IC50 ([2]; A549, 96 h)	IC50 ([3]; A2780, 96 h)	IC50 ([4]; MCF7, 96 h)	IC50 ([5]; MDA-MB-231, 96 h)	IC50 ([6]; MIA PaCa-2, 96 h)	IC50 ([7]; WI-38, 96 h)	IC50 [8]	IC50 ([1]; A-431, 96 hours exposure, MTT)	IC50 ([2]; A549, 96 hours exposure, MTT)	IC50 ([3]; A2780, 96 hours exposure, MTT)	IC50 ([4]; MCF7, 96 hours exposure, MTT)	IC50 ([5]; MDA-MB-231, 96 hours exposure, MTT)	IC50 ([6]; MIA PaCa-2, 96 hours exposure, MTT)	IC50 ([7]; WI-38, 96 hours exposure, MTT, non-cancer cell line)	IC50 ([8]; primary CLL cells, annexin V/propidium iodide, apoptosis, read-out: IC50)	increase in DNA binding affinity compared to constituent PBD and dipyrrole components [9]	weight loss [10]
COC(=O)c1cc(-c2ccc(NC(=O)c3cc(-c4ccc(NC(=O)CCCOc5cc6c(cc5OC)C(=O)N5CCC[C@H]5C=N6)cc4)cn3C)cc2)cn1C [Compound 16b, (S)-methyl 4-(4-(4-(4-(4-(7-methoxy-5-oxo-2,3,5,11a-tetrahydro-1H-pyrrolo[2,1-c][1,4]benzodiazepine-8-yloxy)butanamido)phenyl)-1-methyl-1H-pyrrole-2-carboxamido)phenyl)-1-methyl-1H-pyrrole-2-carboxylate]	2.91 nM	0.54 nM	0.56 nM	0.9 nM	0.46 nM	0.35 nM	159 nM	4.7 nM	–	–	–	–	–	–	–	–	–	–
COC(=O)c1ccc(NC(=O)c2ccc(NC(=O)CCCOc3cc4c(cc3OC)C(=O)N3CCC[C@H]3C=N4)n2C)n1C [GWL-78, reference compound]	–	–	–	–	–	–	–	–	0.55 nM	6.1 nM	0.57 nM	0.32 nM	0.12 nM	2.4 nM	41.3 nM	1.3 nM	up to 50 fold	–
COC(=O)c1cc(NC(=O)c2cc(NC(=O)c3cc(-c4ccc(NC(=O)CCCOc5cc6c(cc5OC)C(=O)N5CCC[C@H]5C=N6)cc4)cn3C)cn2C)cn1C [Compound 16g, (S)-methyl 4-(4-(4-(4-(4-(7-methoxy-5-oxo-2,3,5,11a-tetrahydro-1H-pyrrolo[2,1-c][1,4]benzodiazepine-8-yloxy)butanamido)phenyl)-1-methyl-1H-pyrrole-2-carboxamido)-1-methyl-1H-pyrrole-2-carboxamido)-1-methyl-1H-pyrrole-2-carboxylate]	0.86 nM	2.3 nM	0.24 nM	0.31 nM	0.59 nM	0.31 nM	41.3 nM	0.96 nM	–	–	–	–	–	–	–	–	–	–
COC(=O)c1cc(NC(=O)c2nc(NC(=O)c3cc(-c4ccc(NC(=O)CCCOc5cc6c(cc5OC)C(=O)N5CCC[C@H]5C=N6)cc4)cn3C)cn2C)cn1C [Compound 16h, (S)-methyl 4-(4-(4-(4-(4-(7-methoxy-5-oxo-2,3,5,11a-tetrahydro-1H-pyrrolo[2,1-c][1,4]benzodiazepine-8-yloxy)butanamido)phenyl)-1-methyl-1H-pyrrole-2-carboxamido)-1-methyl-1H-imidazole-2-carboxamido)-1-methyl-1H-pyrrole-2-carboxylate]	0.306 nM	0.45 nM	–	0.075 nM	0.015 nM	0.25 nM	65.6 nM	0.037 nM	–	–	–	–	–	–	–	–	–	–
COC(=O)c1cc(NC(=O)c2cc(-c3ccc(NC(=O)CCCOc4cc5c(cc4OC)C(=O)N4CCC[C@H]4C=N5)cc3)cn2C)cn1C [Compound 16c, (S)-methyl 4-(4-(4-(4-(7-methoxy-5-oxo-2,3,5,11a-tetrahydro-1H-pyrrolo[2,1-c][1,4]benzodiazepine-8-yloxy)butanamido)phenyl)-1-methyl-1H-pyrrole-2-carboxamido)-1-methyl-1H-pyrrole-2-carboxylate]	4.6 nM	0.019 nM	0.96 nM	1.7 nM	2.7 nM	0.34 nM	426 nM	2.1 nM	–	–	–	–	–	–	–	–	–	–
COC(=O)c1cc(-c2ccc(NC(=O)c3cc(NC(=O)CCCOc4cc5c(cc4OC)C(=O)N4CCC[C@H]4C=N5)cn3C)cc2)cn1C [Compound 16e, (S)-methyl 4-(4-(4-(4-(7-methoxy-5-oxo-2,3,5,11a-tetrahydro-1H-pyrrolo[2,1-c][1,4]benzodiazepine-8-yloxy)butanamido)-1-methyl-1H-pyrrole-2-carboxamido)phenyl)-1-methyl-1H-pyrrole-2-carboxylate]	0.0056 nM	0.056 nM	0.013 nM	–	–	0.0013 nM	474 nM	0.098 nM	–	–	–	–	–	–	–	–	–	minor weight loss
CCOC(=O)c1nc(NC(=O)c2cc(-c3ccc(NC(=O)CCCOc4cc5c(cc4OC)C(=O)N4CCC[C@H]4C=N5)cc3)cn2C)cn1C [Compound 16d, (S)-ethyl 4-(4-(4-(4-(7-methoxy-5-oxo-2,3,5,11a-tetrahydro-1H-pyrrolo[2,1-c][1,4]benzodiazepine-8-yloxy)butanamido)phenyl)-1-methyl-1H-pyrrole-2-carboxamido)-1-methyl-1H-imidazole-2-carboxylate]	0.19 nM	0.47 nM	0.15 nM	0.37 nM	0.45 nM	0.11 nM	1240 nM	3 nM	–	–	–	–	–	–	–	–	–	–
COC(=O)c1cc(-c2ccc(NC(=O)CCCOc3cc4c(cc3OC)C(=O)N3CCC[C@H]3C=N4)cc2)cn1C [Compound 16a, (S)-methyl 4-(4-(4-(7-methoxy-5-oxo-2,3,5,11a-tetrahydro-1H-pyrrolo[2,1-c][1,4]benzodiazepine-8-yloxy)butanamido)phenyl)-1-methyl-1H-pyrrole-2-carboxylate]	2.31 nM	7.5 nM	1.87 nM	1.91 nM	2.11 nM	1.2 nM	160 nM	6.2 nM	–	–	–	–	–	–	–	–	–	–
